Series [1] has as its system inner ear. The note with it: chronic local administration to the inner ear of guinea pigs; high frequencies; cited from earlier work.
Series [2] relates to auditory nerve. The series is described as follows: Measurements of compound action potentials (CAP) of the auditory nerve after local administration. The format is in vivo, rat.
Text: In the experiments adult female Wistar rats (Charles River, Sulzfeld, Germany) in the age of 2 to 4 months were used.
To get an access to the inner ear (cochlea) the middle ear is opened by surgery: A small opening behind the ear drum enables the access to the round window of the cochlea, in the massive bone of the bony labyrinth this is the only non-traumatic access to the inner ear. A silver wire electrode having a surface melted silver pearl is carefully positioned through the opening on the membrane of the round window, secured with tissue glue and the opening is closed with dental cement. The silver wire is conducted in the neck of the animal through the skin towards the outside and can then directly be connected to the electrophysiology amplifier for the measurements. The direct electrical access through the CAP electrode enables the direct largely interference-free down lead of the compound potentials of the auditory nerves resulting from an acoustic stimulation. In the signal response, besides the compound action potentials of the auditory nerves (CAP), also the formation of the excitation in the outer hair sense cells (OHC) can be detected as cochlea microphone potentials (CM). These three potentials in the measurements in vivo provide information on: 1) the activity of the auditory nerve close to the threshold up to high levels of acoustic pressure and, therefore, also on the modulation of the transmission, which is mediated by a glycinergic efferent feedback to the afferences of the IHCs, 2) the integrity of the IHCs (via the course of the SPs at increasing levels of acoustic pressures), 3) the amplification by the OHC (through the phase synchronicity of the CM signals with the auditory stimulus).
For this purpose the compound action potentials were activated by different sound stimuli (broadband click stimuli, pure sounds having frequencies of between 4 and 32 kHz, and degrees of loudness from 0 to 100 dB SPL).

With `O=C1C[C@@H]2OCC=C3CN4CC[C@]56c7ccccc7N1[C@H]5[C@H]2[C@H]3C[C@H]46` [strychnine], the “efferent activity and threshold shift after acoustic trauma” value in series [1] is “disrupts efferent activity and results in a permanent threshold shift”.
Take `NCCS(=O)(=O)O` [taurine]: the “amplitude of the CAP signals two days after local administration” value in series [2] (2 days after LA, high and low degrees of loudness, in relation to the untreated condition) was “still reduced”. Further, in series [2] (local administration at round window niche, taurine 5 μl of a 50 mM solution, strychnine 5 μl of a 10 mM solution, high degrees of loudness), the “CAP amplitudes at high degrees of loudness after local administration” value was “overlapping of the CAP amplitude function”. Also, the “CAP amplitudes at low to medium degrees of loudness after local administration” value in series [2] (local administration at round window niche, taurine 5 μl of a 50 mM solution, low to medium degrees of loudness) is on record as “increase slower”. The “amplitude of the CAP signal within 1-3 hours after local administration” value in series [2] (within 1-3 hours after local administration, measurements at 8 kHz, FIG. 7) is reported as “reduction of the amplitude of the CAP signals”.
